The values below come from patent publication US20020034725A1, “SENSITIZATION OF CELLS TO RADIATION AND AND CHEMOTHERAPY” (priority 1996, published 2002).

One assay has as its system REF-GG cells. Briefly: SF2 by limiting dilution analysis of clonogens. The format is cell-based, rat. The following applies: 5 μM FTI-277. How it is done: FIG. 14B comprises two graphs depicting clonogenic survival of REF-GG cells following treatment with GGTI-298 and irradiation. REF-GG cells were plated at 1 to 5 cells per well in microtiter plates in the absence (top panel) or presence (bottom panel) of 8 μM of the geranylgeranyltransferase inhibitor, GGTI-298. Cells were then irradiated with 2 Gray or were mock irradiated. Cells were re-fed after 24 hours with medium that contained no inhibitor, thus diluting the inhibitor to 0.8 μM. These cells were then incubated for two weeks prior to scoring for colony formation. The data are presented as the natural log of the fraction of negative wells. The surviving fraction at 2 Gray was determined from the differences in the slopes obtained by linear regression of analysis of irradiated and unirradiated cells. The surviving fraction at 2 Gray calculated for cells irradiated after GGTI-298 treatment was 0.64. Control cell surviving fraction after 2 Gray was 0.91. The correlation coefficient for linear regression analysis (r^2) was greater than 0.95 in all cases.
Cells were irradiated with the indicated doses of ionizing radiation and were treated with FTI-277 for 24 hours after irradiation (FIG. 14A). […] The shoulders of the survival curves were reduced as were the overall slopes of the survival curves. […]

The subject of the next assay is wild type c-H-ras. Kind of assay: Western blot of ras farnesylation in untransformed REF and MR4 cells. Format: cell-based, rat. An excerpt: The oncogene-transfected cells used in this study were all derived from early passage rat embryo fibroblast (REF) by transfection with the pEJ plasmid containing the H-ras gene isolated from the EJ bladder carcinoma. This vector was introduced by calcium phosphate DNA transfer into primary REF, either alone or together with the pMC29 vector containing v-myc. One clone containing both the introduced H-ras gene and the v-myc genes is 3.7 (McKenna et al., 1990, Cancer Res. 50:97-102). 4R and 5R cells were obtained as rare transformants after transfection with the pEJ plasmid alone (McKenna et al., 1993, supra). MR4 cells were immortalized by transfection with an expression vector comprising v-myc linked to a neomycin-resistant selectable marker (McKenna et al., 1991, Radiat. Res. 125:283-287). REF-GG cells were obtained by transforming REF cells with a chimeric H-ras(v12) in which the CAAX motif is CVLL. All cell lines were mycoplasma free.
Cells were lysed in culture dishes with 1 x reducing Laemmli sample buffer. Samples were boiled, sheared and clarified by centrifugation at 14,000 rpm in a microfuge before storage at −20° C. Samples containing equal amounts of protein were separated on a 12% SDS polyacrylamide gel and electrophoretically transferred to nitrocellulose membranes. Membranes were blocked for 1-2 hours in PBS containing 0.1% Tween-20 and 5% powdered milk before antibody addition. Membranes were probed with monoclonal pan-ras antibody AB-4 (Oncogene Science, Uniondale, N.Y.) at a concentration of 0.5 μg/ml, or with monoclonal H-ras antibody LA069 (1:5000 dilution; Quality Biotech, Camden, N.J.). Detection of protein was accomplished using the ECL chemiluminescence kit (Amersham, Arlington Heights, Ill.). Images were digitized using an Arcus II scanner, and figures were assembled using Adobe Photoshop 3.0.

For assay [1], the system named is murine prostate tumor cells cultured from a metastic lung nodule. Kind of assay: Surviving fraction at 2 Gray, murine prostate tumor cells. The format is cell-based, mouse. The following applies: 5 μM FTI-277. How it is done: FIG. 14C is a series of graphs depicting the effect of 5 μM FTI-277 and 2 Gray irradiation on murine prostate tumor cells cultured from a metastic lung nodule. Cells were referred at 24 hours following irradiation in order to dilute the concentration of the inhibitor to 0.5 μM. The surviving cell fraction was assessed as described in FIG. 14B. The correlation coefficient for linear regression analysis (r^2) was greater than 0.95 in all cases.

The test system of assay [2] is mouse prostate tumor cells transformed with H-ras^v12 and myc. Kind of assay: Radiation induced apoptosis of mouse prostate tumor cells. Format: cell-based. The note with it: doses which inhibited ras farnesylation, 10 Gray. On the procedure:
FIG. 13B is a graph depicting the effects of the inhibitor, FTI-277, at the concentrations indicated (μM) on radiation induced apoptosis of prostate tumor cells. Cells were treated with FTI-277 for 24 hours before irradiation with 10 Gray. Apoptosis was quantitated 24 hours after irradiation by scoring for changes in nuclear morphology following staining of the cells with propidium iodide. Panel A depicts prostate tumor cells cultured from a primary tumor. Panel B depicts prostate tumor cells cultured from an isolated metastasis derived from the tumor.
3×10^3 cells/well in 24-well plates were allowed to attach for 12 hours and were then treated with medium containing FTI-277 in DMSO or an equivalent volume of DMSO without inhibitor. Twenty four hours after irradiation with 10 Gray using the irradiator described above, both adherent and non-adherent cells were harvested. Cells were stained with propidium iodide (Muschel et al., 1995, Cancer Res. 55:995-998). A minimum of three independent fields of 100 cells were counted for each sample. Scoring of samples was performed in a double blind manner.

Assay [3] has as its system T24 bladder carcinoma cells. Briefly: Colony formation / surviving fraction at 2 Gray in T24 cells. The format is cell-based, human. How it is done: FIG. 16B is a graph depicting colony formation following FTI-277 treatment and irradiation of human T24 bladder carcinoma cells. Cells were treated for 24 hours with 5 μM of FTI-277 and were harvested and plated at the indicated cell density in medium containing DMSO (left panel) or 5 μM FTI-277 (right panel) and were immediately irradiated. Cultures were re-fed after 24 hours with medium that contained no inhibitor. […] The cells were allowed to grow for two weeks prior to scoring for colony formation. Open squares: unirradiated cells; closed circles: 2 Gray irradiated cells. The surviving fraction of cells was calculated as described in the description of FIG. 14B. The correlation coefficient for linear regression analysis (r^2) was greater than 0.95 in all cases.
In view of the fact that accumulation of unfarnesylated H-ras in T24 cells takes longer, these cells were pretreated for 24 hours prior to irradiation and subsequent assay for clonogenic survival. An additional consideration raised by pretreatment of cells is that FTI-277 and other farnesyltransferase inhibitors can affect the farnesylation of rho proteins involved in cell morphology and thus alter cell adherence. The pretreatment of T24 cells with FTI-277 reduced the ability of these cells to form discrete colonies after replating, resulting in the formation of secondary satellite colonies. […]

Regarding `COC(=O)[C@H](CCSC)NC(=O)c1ccc(NC[C@@H](N)CS)cc1-c1ccccc1` [FTI-277], the “SF2 (surviving fraction at 2 Gray)” value in the assay with REF-GG cells was found to be 0.81. Further, the migration of ras entry in the assay on wild type c-H-ras (MR4 cells, up to 10 μm, pan-ras antibody) was “no changes in the migration of ras”. Moreover, the H-ras farnesylation status result in the assay on wild type c-H-ras (untransformed REF, doses of up to 30 μM) is listed as “majority of the H-ras remained in the farnesylated form”. Further, in assay [1], the “survival after 2 Gray irradiation” value was found to be 0.36. The radiation-induced apoptosis entry in assay [2] is given as “significant increase in apoptosis”. For the same molecule, the “surviving fraction at 2 Gray irradiation” value in assay [3] (5 μM, 24 hours pretreatment) was 0.35. The “colony formation without irradiation” value in assay [3] (FTI-277 treatment alone) is “did not significantly reduce the fraction of wells giving rise to colonies”.
